“And” between values parts separate entries of the source, which are not always exact repeats. Equal entries are not always repeated.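 Assay format: 96-well plates, 48-hour exposure. GI50: concentration for 50% inhibition of growth. TGI: total growth inhibition.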
Legend:
Assay in all cases: NCI anticancer screen, dose series, 48 h
[1] = system: RPMI-8226 leukemia
[2] = system: HOP-62 NSCLC
[3] = system: NCI-H226 lung
[4] = system: UACC-62 melanoma
[5] = system: HS 578T breast
[6] = system: DU-145 prostate
[7] = system: SN12C renal
[8] = system: HCC-2998 colon
[9] = system: OVCAR-5 ovarian
[10] = system: U251 CNS
[11] = system: 786-0 renal
[12] = system: SK-MEL-5 melanoma
[13] = system: UO-31 renal
[14] = system: HT29 colon
[15] = system: T-47D breast
[16] = system: MOLT-4 leukemia
[17] = system: EKVX NSCLC
[18] = system: SK-MEL-28 melanoma
[19] = system: SNB-75 CNS
[20] = system: LOX IMVI melanoma
[21] = system: OVCAR-4 ovarian
[22] = system: MCF7 breast
[23] = system: KM12 colon
[24] = system: K-562 leukemia
[25] = system: SF-539 CNS
[26] = system: NCI-H23 lung
[27] = system: SR leukemia
[28] = system: ACHN renal
[29] = system: CCRF-CEM leukemia
[30] = system: IGROV1 ovarian
[31] = system: A498 renal
[32] = system: SF-268 CNS
[33] = system: BT-549 breast
[34] = system: SNB-19 CNS
[35] = system: RXF 393 renal
[36] = system: NCI-H522 lung
[37] = system: MALME-3M melanoma
[38] = system: SK-MEL-2 melanoma
[39] = system: COLO 205 colon
[40] = system: NCI/ADR-RES ovarian
[41] = system: SF-295 CNS
[42] = system: UACC-257 melanoma
[43] = system: OVCAR-8 ovarian
[44] = system: A549 NSCLC
[45] = system: OVCAR-3 ovarian
[46] = system: HOP-92 NSCLC
[47] = system: M14 melanoma
[48] = system: HL-60(TB) leukemia
[49] = system: HCT-15 colon
[50] = system: MDA-MB-231 breast
[51] = system: SK-OV-3 ovarian
[52] = system: HCT-116 colon
[53] = system: NCI-H460 lung
[54] = system: SW-620 colon
[55] = system: CAKI-1 renal
[56] = system: MDA-MB-435
[57] = system: PC-3 prostate
[58] = system: TK-10 renal

`CN1CCN(Cc2ccc(NC(=O)c3cncc(C#Cc4cnc5ccc(NC6CCOCC6)nn45)c3)cc2C(F)(F)F)CC1` was tested, and the GI50 [1] was 136 nM and 123 nM, the TGI [1] was 434 nM and 456 nM and the GI50 [2] was 59.9 nM and 43.3 nM. The TGI [2] was 507 nM and 300 nM, the GI50 [3] was 67.5 nM and the TGI [3] was 5790 nM. For the same compound, the GI50 [4] was 120 nM and 145 nM, the TGI [4] was 685 nM and 323 nM and the GI50 [5] was 54.2 nM and 31.7 nM. The TGI [5] was 368 nM and 335 nM, the GI50 [6] was 125 nM and 60.9 nM and the TGI [6] was 2160 nM and 431 nM. For the same compound, the GI50 [7] was 24.1 nM and 21.5 nM, the TGI [7] was 804 nM and 549 nM and the GI50 [8] was 226 nM and 189 nM. The TGI [8] was 2460 nM and 519 nM, the GI50 [9] was 125 nM and 149 nM and the TGI [9] was 752 nM and 773 nM. The GI50 [10] was 125 nM and 134 nM, the TGI [10] was 610 nM and 349 nM and the GI50 [11] was 202 nM and 90 nM. For the same compound, the TGI [11] was 742 nM and 355 nM, the GI50 [12] was 296 nM and 158 nM and the TGI [12] was 1030 nM and 312 nM. For the same compound, the GI50 [13] was 584 nM and 235 nM, the TGI [13] was 3050 nM and 749 nM and the GI50 [14] was 115 nM and 70.4 nM. For the same compound, the TGI [14] was 506 nM and 501 nM, the GI50 [15] was 165 nM and 167 nM and the TGI [15] was 1480 nM and 973 nM. For the same compound, the GI50 [16] was 42 nM, the TGI [16] was 1140 nM and 612 nM and the GI50 [17] was 98.8 nM and 102 nM. For the same compound, the TGI [17] was 903 nM and 591 nM, the GI50 [18] was 179 nM and 155 nM and the TGI [18] was 986 nM and 344 nM. For the same compound, the GI50 [19] was 67.8 nM, the TGI [19] was 198 nM and 22.4 nM and the GI50 [20] was 55.5 nM and 24.8 nM. The TGI [20] was 140 nM and 172 nM, the GI50 [21] was 157 nM and 102 nM and the TGI [21] was 5950 nM and 733 nM. For the same compound, the GI50 [22] was 41.5 nM, the TGI [22] was 543 nM and 377 nM and the GI50 [23] was 5 nM. The TGI [23] was 667 nM and 389 nM, the GI50 [24] was 5 nM and the TGI [24] was 741 nM and 108 nM. The GI50 [25] was 17.6 nM and 17.5 nM, the TGI [25] was 83.2 nM and 112 nM and the GI50 [26] was 114 nM. For the same compound, the TGI [26] was 529 nM, the GI50 [27] was 35.5 nM and the TGI [27] was 506 nM and 351 nM. The GI50 [28] was 161 nM and 155 nM, the TGI [28] was 736 nM and 965 nM and the GI50 [29] was 20.5 nM. For the same compound, the GI50 [30] was 84.7 nM and 20.8 nM, the TGI [30] was 321 nM and 212 nM and the GI50 [31] was 161 nM and 214 nM. The TGI [31] was 425 nM and 366 nM, the GI50 [32] was 74.3 nM and 42.9 nM and the TGI [32] was 930 nM and 293 nM. For the same compound, the GI50 [33] was 120 nM and 275 nM, the TGI [33] was 770 nM and 860 nM and the GI50 [34] was 137 nM and 174 nM. The TGI [34] was 4370 nM and 882 nM, the GI50 [35] was 58.9 nM and 39.5 nM and the TGI [35] was 174 nM and 180 nM. For the same compound, the GI50 [36] was 42.3 nM and 20.2 nM, the TGI [36] was 116 nM and 137 nM and the GI50 [37] was 99.6 nM and 78 nM. The TGI [37] was 588 nM and 246 nM, the GI50 [38] was 95.1 nM and 111 nM and the TGI [38] was 197 nM and 246 nM. The GI50 [39] was 24.6 nM and 33.6 nM, the TGI [39] was 90.7 nM and 127 nM and the GI50 [40] was 2640 nM and 1670 nM. For the same compound, the TGI [40] was 10900 nM and 4620 nM, the GI50 [41] was 63.2 nM and 208 nM and the TGI [41] was 3810 nM and 812 nM. The GI50 [42] was 203 nM and 191 nM, the TGI [42] was 1420 nM and 614 nM and the GI50 [43] was 107 nM and 65.2 nM. For the same compound, the TGI [43] was 645 nM and 495 nM, the GI50 [44] was 84.1 nM and 74.8 nM and the TGI [44] was 459 nM and 671 nM. For the same compound, the GI50 [45] was 135 nM and 70.3 nM, the TGI [45] was 752 nM and 300 nM and the GI50 [46] was 36.7 nM and 15.6 nM. The TGI [46] was 175 nM and 69.4 nM, the GI50 [47] was 66.4 nM and 49.4 nM and the TGI [47] was 156 nM and 200 nM. The GI50 [48] was 139 nM and 43.2 nM, the TGI [48] was 384 nM and 336 nM and the GI50 [49] was 324 nM and 205 nM. The TGI [49] was 5100 nM and 667 nM, the GI50 [50] was 48.2 nM and 19.6 nM and the TGI [50] was 219 nM and 241 nM. For the same compound, the GI50 [51] was 116 nM, the TGI [51] was 439 nM and the GI50 [52] was 71.6 nM and 18.3 nM. For the same compound, the TGI [52] was 265 nM and 455 nM, the GI50 [53] was 62.7 nM and 33.9 nM and the TGI [53] was 837 nM and 197 nM. The GI50 [54] was 76.6 nM and 21.3 nM, the TGI [54] was 1640 nM and 167 nM and the GI50 [55] was 98.7 nM and 39.5 nM. The GI50 [56] was 119 nM and 63 nM, the TGI [56] was 761 nM and 268 nM and the GI50 [57] was 108 nM and 114 nM. For the same compound, the TGI [57] was 5340 nM and 1160 nM, the GI50 [58] was 156 nM and the TGI [58] was 759 nM.
In the case of `c1ccc(-c2c(-c3ccccc3)[n+](Cc3ccc4ccccc4c3)c(-c3ccccc3)n2Cc2ccc3ccccc3c2)cc1`, the GI50 [1] is reported as 56.8 nM, the TGI [1] is reported as 505 nM and the GI50 [5] is reported as 370 nM. It also gave a TGI [5] of 1830 nM, a GI50 [6] of 365 nM and a TGI [6] of 1430 nM. For the same compound, the GI50 [11] was 352 nM, the TGI [11] was 1860 nM and the GI50 [13] was 672 nM. It also gave a TGI [13] of 2940 nM, a GI50 [16] of 285 nM and a TGI [16] of 1130 nM. The GI50 [24] was 181 nM, the TGI [24] was 1230 nM and the GI50 [26] was 224 nM. The TGI [26] was 727 nM, the GI50 [28] was 401 nM and the TGI [28] was 1390 nM. The GI50 [29] was 241 nM, the TGI [29] was 1240 nM and the GI50 [46] was 158 nM. For the same compound, the TGI [46] was 592 nM, the GI50 [48] was 150 nM and the TGI [48] was 400 nM. It also gave a GI50 [54] of 326 nM, a TGI [54] of 1380 nM and a GI50 [57] of 200 nM. For the same compound, the TGI [57] was 862 nM.

From PubChem BioAssay (NCI)
